Laboratory results reported in article PMC10860144, “Exploring the Dispersion and Electrostatic Components in Arene–Arene Interactions between Ligands and G4 DNA to Develop G4-Ligands” (Journal of Medicinal Chemistry, 2024).
Converted amounts (≈) assume the structure as drawn.

Key:
[1] = Intrinsic clearance in rat hepatocytes; type: in vitro ADME
Protocol: All compounds (2–11, 25–29) were screened for their logD and solubility at pH 7.4 and for their intrinsic clearance in rat hepatocytes and human microsomes (Table S2). […] Replacing the basic amine side chain to a methyl substituent in the quinazolines (25–29) still retained good solubility (134 to over 1000 μM) but increased clearance in both rat hepatocytes and human microsomes. The logD was low for compounds with a basic amine side chain (2–11) and increased slightly when the amine was replaced with a methyl (25–29). As expected, additional substituents also affected the logD with the chloro-substituents increasing logD the most.
a Intrinsic clearance in rat hepatocytes ((μL/min)/10^6 cells).b Intrinsic clearance in human microsomes (μL/min/mg). […]

[2] = system: G4 structure on DNA template (PEPu24T); assay: Taq polymerase stop (primer extension) assay, G4 template; type: biochemical
Excerpt: To challenge all the synthesized compounds (2–11 and 25–29) in a more intricate context, we conducted a Taq polymerase stop assay to evaluate their capacity to impede DNA synthesis through G4 stabilization. In this assay, we compared the progress of the Taq DNA polymerase along two distinct DNA templates: one with a G4 structure (Figure 5) and another serving as a non-G4 control (Figure S21). If an external species (e.g., G4 ligand) binds and stabilizes the G4 structure, the polymerase will be partially halted. The extent of this DNA polymerase stalling is dependent on the ability of the compound to stabilize the G4 on the DNA template. The increased G4 stabilization can be detected as a reduction in the amount of newly synthesized DNA that has reached the end of the DNA template (full-length/end-product). Analysis of these shorter terminated DNA products will give information about the precise location of the DNA polymerase stalling with a single nucleotide resolution. If the ligand imposes little to no stabilization or binding, the G4 is readily resolved by the DNA polymerase, and no difference in the amount of DNA end-product can therefore be expected upon the addition of the compound.
Templates for the primer extension assay were created by annealing 25 nt TET labeled primer (1 μM final concentration) to either PEPu24T or a mutated sequence not forming a G4, PEPu24T mut, (1.25 μM final concentration) in 100 mM KCl by heating to 95 °C for 5 min and slowly cooling to room temperature. […] Compounds were added in the indicated concentration and incubated on ice for 10 min before starting the reaction by adding dNTPs (100 μM final concentration) to the reaction and transferring it to 37 °C. Reactions were stopped after 15 min by addition of 10 μL of formamide loading buffer (0.5% SDS, 25 mM EDTA, 95% v/v formamide and xylene-cyanol). Samples were then loaded on a 12% polyacrylamide gel containing 7 M urea and 25% formamide and imaged using an Amersham Typhoon. The images were quantified using ImageJ 1.53e software, and the percentage of full-length product compared to a sample without compound was calculated.
Templates for the primer extension assay were created by annealing 25nt TET labelled primer (1 µM final concentration) to either PEPu24T or a mutated sequence not forming a G4, PEPu24T mut, (1.25 µM final concentration) in 100 mM KCl by heating to 95 °C for 5 min and slowly cooling to room temperature. The reaction mixture (10 µl) contained 1X Taq Buffer with KCl (10 mM Tris-HCl pH 8.8, 50 mM KCl, detergent), 25 mM MgCl2, […]
[…] Compounds were added in the indicated concentration and incubated on ice for 10 min before starting the reaction by adding dNTPs (100 µM final concentration) to the reaction and transferring it to 37 °C. Reactions were stopped after 15 min by addition of 10 µl of formamide loading buffer (0,5% SDS, 25 mM EDTA, 95% v/v formamide and xylene-cyanol). Samples were then loaded on a 12% polyacrylamide gel containing 7 M urea and 25% formamide and imaged using an Amersham™ Typhoon™.
The images were quantified using ImageJ 1.53e software and the percentage of full-length product compared to a sample without compound was calculated. […]

Solubility at pH 7.4 = type: physicochemical
Protocol: (§1) Physicochemical properties
(§2) The Physicochemical profiling (LogD, Solubility, Caco-2 cell permeability) was performed as previously
(§3) described.8 Cell viability was performed as described below.
(§4) Table S2. Pharmacokinetic Properties
(§5) Compound Structure logD, Solubility, Rat hepsa Human mics b

logD at pH 7.4 = type: physicochemical
Protocol: as §1, §2, §3, §4, §5

SMILES: Cc1cc(NCCCN(C)C)nc(Nc2ncc3ccccc3n2)n1 [Compound 2, N4-(3-(Dimethylamino)propyl)-6-methyl-N2-(quinazolin-2-yl)pyrimidine-2,4-diamine]
- Rat heps: intrinsic clearance in rat hepatocytes [1]: 8 (μL/min)/106 cells
- full-length DNA product ([2]; compound 0.24 μM, compared to DMSO control): about 65%
- solubility (Solubility at pH 7.4): > 1000 µM
- logD (logD at pH 7.4): -0.1

SMILES: Cc1cc(C)c2nc(Nc3nc(C)cc(NCCCN(C)C)n3)nc(C)c2c1 [Compound 5, N4-(3-(Dimethylamino)propyl)-6-methyl-N2-(4,6,8-trimethylquinazolin-2-yl)pyrimidine-2,4-diamine]
- Rat heps: intrinsic clearance in rat hepatocytes [1]: 1 (μL/min)/106 cells
- blocking of the Taq DNA polymerase at the G4 structure (in words) ([2]; compound 0.24 μM): almost completely blocked
- solubility (Solubility at pH 7.4): 962 µM (≈ 365 µg/mL)
- logD (logD at pH 7.4): 0.6

SMILES: Cc1cc(C)c2nc(Nc3nc(C)cc(C)n3)nc(C)c2c1 [Compound 27, N-(4,6-Dimethylpyrimidin-2-yl)-4,6,8-trimethylquinazolin-2-amine]
- Rat heps: intrinsic clearance in rat hepatocytes [1]: 27 (μL/min)/106 cells
- IC50 ([2]; G4 template, DNA 0.048 μM, read-out: concentration reaching 50% inhibition of DNA end-product): 1200 nM
- solubility (Solubility at pH 7.4): 264 µM (≈ 77.5 µg/mL)
- logD (logD at pH 7.4): 2.9
